Test [1] deals with GST-fused human Keap1 (amino acid residues: 325-642) protein (Homo sapiens (Human), UniProt Q14145). Nature of the test: FP assay (in vitro): inhibition of binding between Nrf2 and Keap1 by fluorescence polarization. Particulars: 20 nM GST-fused human Keap1, 10 nM FITC-labeled Nrf2 peptide, 2 hr at room temperature. The method, then:
Experimental Example 1: FP Assay (In Vitro)
The inhibitory activity of test compounds on the binding between Nrf2 and Keap1 was determined by fluorescence polarization. A solution of 50 mM Tris-HCl pH.8.0 (NACALAI, REF: 06938-15), and 5 mM DTT (SIGMA-ALDRICH, REF: 646563-10X.5 mL) was used as a buffer solution. 8 μL of a buffer solution containing 40 nM GST-fused human Keap1 (amino acid residues: 325-642) protein (Protein tech, REF: Ag0779) was taken in a black 384-well plate (final concentration 20 nM), and 4 μL of the test compound solution prepared to each concentration in buffer solution was added thereto. A well containing a portion of the buffer solution without Keap1 was placed as a negative control. A well with no compound was used as a positive control. 40 nM of FITC-labeled Nrf2 peptide (FITC-X-LQLDEETGEFLPIQ (X=ε-Acp), Peptide Institute Inc.) was added thereto (10 nM final concentration). The wells were incubated at room temperature for 2 hr, and then fluorescence polarization was measured with a plate reader SPECTRAMAX Paradigm (Molecular devices) at excitation wavelength of 485 nm and fluorescence wavelength of 535 nm. The fluorescence polarization of the negative control was set to 100% inhibition and that of the positive control to 0% inhibition, and the inhibitory rate upon addition of the test compound was calculated using the following formula.
(Polarisation of emitted light reports the rotation of a fluorescent probe.)

Test [2] has as its system NQO1 activity in Hepa1c1c7 cells. The experiment in a line: NAD(P)H: quinone oxidoreductase-1 (NQO1) enzyme induction assay (in vitro). The format is cell-based, mouse. The conditions noted are these: Mus musculus, Hepa-1c1c7, NQO1 activity upon addition of 400 nM of test compound, about 48 hr, ratio from the base without the compound. How it is done:
Experimental Example 2: NAD(P)H: Quinone Oxidoreductase-1 (NQO1) Enzyme Induction Assay (In Vitro)
The NQO1 assay was performed based on a previous report (Methods in Enzymology 2004; 382: 243-258). Hepa1c1c7 cells (mouse hepatocyte cell line, ATCC, cat. no. CRL-2026) were cultured in D-MEM medium containing 10% FBS and 1% penicillin/streptomycin (5% CO2, 37° C.), and seeded into 96-well plates (Corning REF. 353072) at 1×10^4 cells/well. A portion of the wells were prepared with medium only for background measurement without seeding cells. The next day, 400 nM of the test compound (0.004% of the final concentration in DMSO) dissolved in DMSO was added thereto, and the wells were incubated for about 48 hr. A well without adding the test compound was prepared for base activity assay in part.
Cell lysate (solution containing 0.8% digitonin, 2 mM EDTA), reaction solution (solution containing 25 mM Tris-HCl, 0.07% albumin, 0.01% Tween-20, 2 U/mL glucose-6-phosphate dehydrogenase, 5 μM flavin adenine dinucleotide, 1 μM glucose-6-phosphate, 30 μM nicotinamide adenine dinucleotide phosphate, 0.03% 3-(4,5-dimethyl-2-thiazolyl)-2,5-diphenyltetrazolium bromide (MTT), and 50 μM menadione), stop solution (solution containing 0.3 mM dicoumarol and 5 mM potassium dihydrogen phosphate, pH 7.4) were prepared. After the medium was removed, 50 μL of the cell lysate was added and incubated at 37° C. for 10 minutes, followed by shaking at room temperature for 10 minutes. 200 μL of reaction solution was added thereto, and allowed to stand for 5 minutes at room temperature. 50 μL of the stop solution was added thereto, and absorbance was measured at 610 nm on a SpectraMax PLUS384 (Molecular devices) or POWERSCAN HT (DS Pharma Biomedical). The test results were analyzed in Excel, and the NQO1 activity upon addition of 400 nM of test compound was calculated as a ratio from the base without the compound.
The results of each test compound in this test are shown in the following Table 2 (A: 5<NQO1 activity ratio, B: 3<NQO1 activity ratio 5, C: 1.5<NQO1 activity ratio 3).

Sequence of GST-fused human Keap1 (amino acid residues: 325-642) protein (Q14145 325-624 limits assumed): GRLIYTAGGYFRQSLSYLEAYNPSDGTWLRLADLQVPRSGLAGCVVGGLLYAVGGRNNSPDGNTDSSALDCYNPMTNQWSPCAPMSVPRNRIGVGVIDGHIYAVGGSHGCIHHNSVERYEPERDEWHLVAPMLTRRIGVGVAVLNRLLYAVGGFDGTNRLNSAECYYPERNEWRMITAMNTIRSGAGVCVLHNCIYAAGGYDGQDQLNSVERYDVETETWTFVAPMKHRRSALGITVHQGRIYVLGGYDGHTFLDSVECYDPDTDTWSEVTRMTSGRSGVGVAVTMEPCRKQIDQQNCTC

As usually defined, the IC50 is the concentration needed to halve the response being measured. Higher therefore signals weaker potency in that assay. Broadly, the fold induction is the signal under treatment as a multiple of the control signal. With `CC[C@@H]1CN(Cc2cc([C@@H](CC(=O)O)c3ccc4c(nnn4C)c3C)cc3ccsc23)Cc2nc(O)ccc2O1` [Example 2, (3R)-3-(1,4-Dimethyl-1H-benzotriazol-5-yl)-3-(7-{[(2R)-2-ethyl-7-hydroxy-2,3-dihydropyrido[2,3-f][1,4]oxazepin-4(5H)-yl]methyl}-1-benzothiophen-5-yl)propanoic acid], the IC50 in test [1] lay in the range of 30 to 300 nM. The fold induction at 0.4 µM in test [2] was greater than 5.
On to `Cc1c([C@@H](CC(=O)O)c2cc(CN3Cc4nc(O)ccc4OC4(CC4)C3)c3sccc3c2)ccc2c1nnn2C` [Example 3, (3S)-3-(1,4-Dimethyl-1H-benzotriazol-5-yl)-3-{7-[(7′-hydroxy-3′H-spiro[cyclopropane-1,2′-pyrido[2,3-f][1,4]oxazepin]-4′(5′H)-yl)methyl]-1-benzothiophen-5-yl}propanoic acid], for which the IC50 in test [1] is 10 to 30 nM. For the same molecule, the fold induction at 0.4 µM in test [2] was greater than 5.
For `Cc1c([C@H](CC(=O)O)c2cc(CN3Cc4nc(O)ccc4OC4(CC4)C3)c3sccc3c2)ccc2c1nnn2C` [Example 4, (3R)-3-(1,4-Dimethyl-1H-benzotriazol-5-yl)-3-{7-[(7′-hydroxy-3′H-spiro[cyclopropane-1,2′-pyrido[2,3-f][1,4]oxazepin]-4′ (5′H)-yl)methyl]-1-benzothiophen-5-yl}propanoic acid], the IC50 in test [1] lay in the range of 10 to 30 nM. Further, in test [2], the fold induction at 0.4 µM is greater than 5.
`Cc1c([C@@H](CC(=O)O)c2cc(CN3Cc4nc(O)ccc4O[C@H](C4CC4)C3)c3sccc3c2)ccc2c1nnn2C` [Example 6, (3S)-3-(7-{[(2R)-2-Cyclopropyl-7-hydroxy-2,3-dihydropyrido[2,3-f][1,4]oxazepin-4(5H)-yl]methyl}-1-benzothiophen-5-yl)-3-(1,4-dimethyl-1H-benzotriazol-5-yl)propanoic acid] showed an IC50 in test [1] of 10 to 30 nM. Also, the fold induction at 0.4 µM in test [2] was greater than 5.
As for `Cc1c([C@@H](CC(=O)O)c2cc(CN3Cc4nc(O)ccc4O[C@@H](C4CC4)C3)c3sccc3c2)ccc2c1nnn2C` [Example 7, (3S)-3-(7-{[(2S)-2-Cyclopropyl-7-hydroxy-2,3-dihydropyrido[2,3-f][1,4]oxazepin-4(5H)-yl]methyl}-1-benzothiophen-5-yl)-3-(1,4-dimethyl-1H-benzotriazol-5-yl)propanoic acid], the IC50 in test [1] was 30 to 300 nM. The fold induction at 0.4 µM in test [2] was greater than 5.
On the same counts, the results for `Cc1c([C@H](CC(=O)O)c2cc(CN3Cc4nc(O)ccc4O[C@@H](C4CC4)C3)c3sccc3c2)ccc2c1nnn2C` [Example 8, (3R)-3-(7-{[(2S)-2-Cyclopropyl-7-hydroxy-2,3-dihydropyrido[2,3-f][1,4]oxazepin-4(5H)-yl]methyl}-1-benzothiophen-5-yl)-3-(1,4-dimethyl-1H-benzotriazol-5-yl)propanoic acid] are 30 to 300 nM and 3 to 5.
For the molecule `Cc1c([C@@H](CC(=O)O)c2cc(CN3Cc4nc(O)ccc4O[C@H](C4CC4)C3)c3sccc3c2)cnc2c1nnn2C` [Example 9, (3S)-3-(7-{[(2R)-2-Cyclopropyl-7-hydroxy-2,3-dihydropyrido[2,3-f][1,4]oxazepin-4(5H)-yl]methyl}-1-benzothiophen-5-yl)-3-(3,7-dimethyl-3H-[1,2,3]triazolo[4,5-b]pyridin-6-yl)propanoic acid], the 50% inhibitory concentration (IC50) in test [1] lay within 30 to 300 nM. For the same molecule, the fold induction at 0.4 µM in test [2] is greater than 5.
`Cc1c([C@H](CC(=O)O)c2cc(CN3Cc4nc(O)ccc4O[C@H](C4CC4)C3)c3sccc3c2)cnc2c1nnn2C` [Example 10, (3R)-3-(7-{[(2R)-2-Cyclopropyl-7-hydroxy-2,3-dihydropyrido[2,3-f][1,4]oxazepin-4(5H)-yl]methyl}-1-benzothiophen-5-yl)-3-(3,7-dimethyl-3H-[1,2,3]triazolo[4,5-b]pyridin-6-yl)propanoic acid]: the concentration for half-maximal inhibition (IC50) in test [1] lay within 10 to 30 nM. For the same molecule, in test [2], the fold induction at 0.4 µM is greater than 5.
In test [1], `Cc1c([C@H](c2cc(CN3Cc4nc(O)ccc4O[C@H](C4CC4)C3)c3sccc3c2)C(C)(C)C(=O)O)ccc2c1nnn2C` [Example 14, (3S)-3-(7-{[(2R)-2-Cyclopropyl-7-hydroxy-2,3-dihydropyrido[2,3-f][1,4]oxazepin-4(5H)-yl]methyl}-1-benzothiophen-5-yl)-3-(1,4-dimethyl-1H-benzotriazol-5-yl)-2,2-dimethylpropanoic acid] gave an IC50 of no more than 10 nM. Besides, in test [2], the fold induction at 0.4 µM is greater than 5.
Regarding `Cc1c([C@@H](CC(=O)O)c2cc(CN3Cc4nc(O)ccc4O[C@H](C)C3)c3sccc3c2)ccc2c1nnn2C` [Example 15, (3S)-3-(1,4-Dimethyl-1H-benzotriazol-5-yl)-3-(7-{[(2R)-7-hydroxy-2-methyl-2,3-dihydropyrido[2,3-f][1,4]oxazepin-4(5H)-yl]methyl}-1-benzothiophen-5-yl)propanoic acid], in test [1], the IC50 lay within 10 to 30 nM. The fold induction at 0.4 µM in test [2] is greater than 5.
Molecule `Cc1c([C@H](CC(=O)O)c2cc(CN3Cc4nc(O)ccc4O[C@H](C)C3)c3sccc3c2)ccc2c1nnn2C` [Example 16, (3R)-3-(1,4-Dimethyl-1H-benzotriazol-5-yl)-3-(7-{[(2R)-7-hydroxy-2-methyl-2,3-dihydropyrido[2,3-f][1,4]oxazepin-4(5H)-yl]methyl}-1-benzothiophen-5-yl)propanoic acid] registered an IC50 in test [1] of 30 to 300 nM. The fold induction at 0.4 µM in test [2] is greater than 5.
`CC[C@@H]1CN(Cc2cc([C@H](CC(=O)O)c3cc(C)c4c(nnn4C)c3C)cc3ccsc23)Cc2nc(O)ccc2O1` [Example 17, (3S)-3-(7-{[(2R)-2-Ethyl-7-hydroxy-2,3-dihydropyrido[2,3-f][1,4]oxazepin-4(5H)-yl]methyl}-1-benzothiophen-5-yl)-3-(1,4,7-trimethyl-1H-benzotriazol-5-yl)propanoic acid] showed a half-maximal inhibitory concentration (IC50) in test [1] of 30 to 300 nM. For the same molecule, in test [2], the fold induction at 0.4 µM was greater than 5.
On the same counts, the results for `CC[C@@H]1CN(Cc2cc([C@@H](CC(=O)O)c3cc(C)c4c(nnn4C)c3C)cc3ccsc23)Cc2nc(O)ccc2O1` [Example 18, (3R)-3-(7-{[(2R)-2-Ethyl-7-hydroxy-2,3-dihydropyrido[2,3-f][1,4]oxazepin-4(5H)-yl]methyl}-1-benzothiophen-5-yl)-3-(1,4,7-trimethyl-1H-benzotriazol-5-yl)propanoic acid] are 30 to 300 nM and greater than 5.
In test [1], `CC[C@@H]1CN(Cc2cc([C@@H](CC(=O)O)c3ccc4c(nnn4CC(C)(C)O)c3C)cc3ccsc23)Cc2nc(O)ccc2O1` [Example 19, (3R)-3-(7-{[(2R)-2-Ethyl-7-hydroxy-2,3-dihydropyrido[2,3-f][1,4]oxazepin-4(5H)-yl]methyl}-1-benzothiophen-5-yl)-3-[1-(2-hydroxy-2-methylpropyl)-4-methyl-1H-benzotriazol-5-yl]propanoic acid] had an IC50 of 30 to 300 nM. In test [2], the fold induction at 0.4 µM fell in the range of 3 to 5.
In turn, `CC[C@@H]1CN(Cc2cc([C@H](CC(=O)O)c3ccc4c(nnn4CC(C)(C)O)c3C)cc3ccsc23)Cc2nc(O)ccc2O1` [Example 20, (3S)-3-(7-{[(2R)-2-Ethyl-7-hydroxy-2,3-dihydropyrido[2,3-f][1,4]oxazepin-4(5H)-yl]methyl}-1-benzothiophen-5-yl)-3-[1-(2-hydroxy-2-methylpropyl)-4-methyl-1H-benzotriazol-5-yl]propanoic acid] returned an IC50 in test [1] of 10 to 30 nM. Also, the fold induction at 0.4 µM in test [2] is 3 to 5.

(Values after patent US20250296939A1, “BENZOTHIOPHENE COMPOUND” (Kyoto Pharmaceutical Industries, Ltd., priority 2022, published 2025).)
